Source: ChEMBL document CHEMBL1151871, “SAR around (l)-S-adenosyl-l-homocysteine, an inhibitor of human DNA methyltransferase (DNMT) enzymes” (Bioorg Med Chem Lett, 2009)
Activity calls are given as the source filed them. No cut-off for these calls is given here.

Columns and labels:
[1] = target: DNA (cytosine-5)-methyltransferase 1 (Homo sapiens, UniProt P26358); assay: Inhibition of human recombinant DNMT1 expressed in baculovirus infected high five insect cells
[2] = target: T1, DNA (cytosine-5)-methyltransferase 3B (Homo sapiens, UniProt Q9UBC3); assay: Inhibition of human recombinant DNMT3b2 expressed in baculovirus infected high five insect cells at 45 uM
[3] = target: T1, DNA (cytosine-5)-methyltransferase 3B; assay: biochemical

DNA (cytosine-5)-methyltransferase 1, sequence (P26358 whole entry): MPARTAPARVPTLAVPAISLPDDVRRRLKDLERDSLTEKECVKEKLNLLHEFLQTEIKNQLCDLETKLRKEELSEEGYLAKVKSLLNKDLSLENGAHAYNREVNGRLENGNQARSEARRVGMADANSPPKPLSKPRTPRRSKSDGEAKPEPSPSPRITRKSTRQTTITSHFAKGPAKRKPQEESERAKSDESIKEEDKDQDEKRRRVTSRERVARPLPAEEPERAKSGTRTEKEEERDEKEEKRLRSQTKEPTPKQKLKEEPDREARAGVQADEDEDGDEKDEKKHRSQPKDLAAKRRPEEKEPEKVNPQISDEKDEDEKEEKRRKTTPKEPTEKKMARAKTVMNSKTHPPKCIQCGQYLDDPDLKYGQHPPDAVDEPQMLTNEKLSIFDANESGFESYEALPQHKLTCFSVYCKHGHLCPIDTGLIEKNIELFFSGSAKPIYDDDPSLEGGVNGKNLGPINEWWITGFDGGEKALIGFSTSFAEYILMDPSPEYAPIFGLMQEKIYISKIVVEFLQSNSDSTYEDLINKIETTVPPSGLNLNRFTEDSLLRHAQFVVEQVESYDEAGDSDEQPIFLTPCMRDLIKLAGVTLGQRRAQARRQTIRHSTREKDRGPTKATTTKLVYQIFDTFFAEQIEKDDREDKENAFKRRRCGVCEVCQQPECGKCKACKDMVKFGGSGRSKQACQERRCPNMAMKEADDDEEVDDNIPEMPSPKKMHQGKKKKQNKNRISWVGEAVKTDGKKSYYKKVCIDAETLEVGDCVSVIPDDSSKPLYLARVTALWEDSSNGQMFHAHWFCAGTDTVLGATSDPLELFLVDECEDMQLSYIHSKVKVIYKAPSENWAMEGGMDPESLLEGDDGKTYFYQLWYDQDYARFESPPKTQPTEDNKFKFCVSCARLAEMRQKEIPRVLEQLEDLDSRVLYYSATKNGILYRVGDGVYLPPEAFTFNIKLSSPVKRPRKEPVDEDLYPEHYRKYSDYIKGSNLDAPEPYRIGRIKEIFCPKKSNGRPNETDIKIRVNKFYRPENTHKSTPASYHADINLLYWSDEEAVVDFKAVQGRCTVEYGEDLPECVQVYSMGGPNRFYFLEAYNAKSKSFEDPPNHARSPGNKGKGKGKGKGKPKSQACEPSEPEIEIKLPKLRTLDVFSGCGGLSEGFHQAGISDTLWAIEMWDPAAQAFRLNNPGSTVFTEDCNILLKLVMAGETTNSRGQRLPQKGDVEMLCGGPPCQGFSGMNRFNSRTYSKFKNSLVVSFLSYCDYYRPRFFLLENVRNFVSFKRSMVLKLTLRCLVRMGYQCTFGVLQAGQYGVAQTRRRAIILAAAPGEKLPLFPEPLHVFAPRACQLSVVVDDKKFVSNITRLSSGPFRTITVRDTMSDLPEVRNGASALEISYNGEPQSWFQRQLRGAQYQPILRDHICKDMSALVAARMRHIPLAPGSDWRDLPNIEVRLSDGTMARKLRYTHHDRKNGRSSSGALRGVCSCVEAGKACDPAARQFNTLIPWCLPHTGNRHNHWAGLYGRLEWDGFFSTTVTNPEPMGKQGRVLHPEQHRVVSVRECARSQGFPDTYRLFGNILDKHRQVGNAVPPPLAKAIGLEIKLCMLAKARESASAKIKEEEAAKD

Row | IC50 [1] [µM] | inhibition [2] | IC50 [3] [µM] | Compound
1 | 61 | – | 1 | NC(CCSC[C@H]1O[C@@H](n2cnc3c(NCc4ccccc4)ncnc32)[C@H](O)[C@@H]1O)C(=O)O (some centres undefined)
2 | – | – | > 1000 | N[C@@H](CCSC[C@H]1O[C@@H](n2cnc3c(=O)[nH]cnc32)[C@H](O)[C@@H]1O)C(=O)O
3 | – | – | 0.3 | Nc1ncnc2c1ncn2[C@@H]1O[C@H](CSCC[C@H](N)C(=O)O)[C@@H](O)[C@H]1O (racemic) [S-ADENOSYLHOMOCYSTEINE]

More lines, now with the values behind:

Row | Compound | IC50 [1] [µM] | inhibition [2] | IC50 [3] [µM]
4 | COc1nc(N)c2ncn([C@@H]3O[C@H](CSCCC(N)C(=O)O)[C@@H](O)[C@H]3O)c2n1 (some centres undefined) | 75 | inactive | –
5 | Nc1ncnc2c1nnn2[C@@H]1O[C@H](CSCCC(N)C(=O)O)[C@@H](O)[C@H]1O (some centres undefined) | 8 | – | –
6 | CSc1nc(N)c2ncn([C@@H]3O[C@H](CSCCC(N)C(=O)O)[C@@H](O)[C@H]3O)c2n1 (some centres undefined) | 216 | – | 500
